Measurements: ChEMBL document CHEMBL3414448, “Advances in the discovery of novel antimicrobials targeting the assembly of bacterial cell division protein FtsZ” (Eur J Med Chem, 2015)
Values belong to the compound of their own block, whether it stands above or below them.

What was measured:
[1] = target: T1, Cell division protein FtsZ (Staphylococcus aureus) (UniProt P0A031); assay: Inhibition of FtsZ in methicillin-resistant Staphylococcus aureus assessed as reduction in methicillin MIC (reference value: 32 ug/ml)
T1 sequence (whole entry): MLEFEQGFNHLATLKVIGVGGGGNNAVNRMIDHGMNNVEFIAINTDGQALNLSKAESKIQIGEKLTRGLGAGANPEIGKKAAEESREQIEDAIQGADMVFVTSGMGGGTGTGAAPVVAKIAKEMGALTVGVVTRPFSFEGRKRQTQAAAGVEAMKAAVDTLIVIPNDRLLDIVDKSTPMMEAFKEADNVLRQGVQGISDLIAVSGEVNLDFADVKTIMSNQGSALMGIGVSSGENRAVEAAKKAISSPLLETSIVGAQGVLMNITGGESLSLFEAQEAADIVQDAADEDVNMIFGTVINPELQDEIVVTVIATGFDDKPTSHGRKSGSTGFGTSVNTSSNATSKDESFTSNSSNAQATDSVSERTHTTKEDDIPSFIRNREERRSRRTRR

[2] = target: T2, Cell division protein FtsZ (Escherichia coli K-12) (UniProt P0A9A6); assay: Inhibition of FtsZ in Escherichia coli assessed as Z-ring containing cells level at 4 and 8 ug/ml (reference value: 88%); set-up: scale not given: the % may be the effect or the level left
T2 sequence (whole entry): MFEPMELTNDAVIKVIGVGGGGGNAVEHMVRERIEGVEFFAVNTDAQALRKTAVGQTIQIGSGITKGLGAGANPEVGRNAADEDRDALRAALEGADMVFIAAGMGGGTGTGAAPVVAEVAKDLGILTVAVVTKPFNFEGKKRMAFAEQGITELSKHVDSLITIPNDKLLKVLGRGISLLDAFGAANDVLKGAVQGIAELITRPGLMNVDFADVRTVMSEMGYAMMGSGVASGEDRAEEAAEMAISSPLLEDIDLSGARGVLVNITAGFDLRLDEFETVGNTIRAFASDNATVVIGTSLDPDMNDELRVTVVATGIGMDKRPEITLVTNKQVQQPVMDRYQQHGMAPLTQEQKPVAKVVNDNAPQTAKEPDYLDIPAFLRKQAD

[3] = target: T3, Cell division protein FtsZ (Bacillus subtilis (strain 168)) (UniProt P17865); assay: Inhibition of Bacillus subtilis FtsZ GTPase activity; details: concentration not given here
T3 sequence (whole entry): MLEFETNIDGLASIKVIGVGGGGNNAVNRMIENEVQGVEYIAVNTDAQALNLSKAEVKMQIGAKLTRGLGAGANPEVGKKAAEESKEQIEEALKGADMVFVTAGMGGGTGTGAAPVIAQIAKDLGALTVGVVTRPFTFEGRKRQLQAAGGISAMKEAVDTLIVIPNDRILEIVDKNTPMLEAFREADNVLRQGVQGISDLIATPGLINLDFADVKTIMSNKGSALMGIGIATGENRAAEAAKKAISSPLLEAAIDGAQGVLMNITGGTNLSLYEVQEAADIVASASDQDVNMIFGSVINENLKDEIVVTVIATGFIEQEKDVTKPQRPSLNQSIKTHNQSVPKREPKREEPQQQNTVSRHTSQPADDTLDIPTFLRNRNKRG

[4] = Inhibition of FtsZ (unknown origin) assessed as reduction in frequency of Z-rings per unit cell length; details: concentration not given here
[5] = Activation of FtsZ (unknown origin) assessed as increase in enzyme GTPase activity at 30 uM
[6] = target: T2, Cell division protein FtsZ (Escherichia coli K-12); assay: Inhibition of Escherichia coli FtsZ assembly

SMILES: CC(C)c1c(O)ccc2c1CC[C@H]1C(C)(C)CCC[C@]21C
MIC [1]: 4 µg/mL

SMILES: O=C(Oc1cc(OC(=O)c2cc(O)cc(O)c2)c2ccccc2c1)c1cc(O)c(O)c(O)c1
inhibition [3]: < 20%

SMILES: O=C(Oc1cc(OC(=O)c2ccc(O)c(Cl)c2)c2ccccc2c1)c1ccc(O)c(Cl)c1
inhibition [3]: < 20%

SMILES: COc1c(OC(C)=O)ccc(/C=N/c2c(C(C)C)cccc2C(C)C)c1[N+](=O)[O-]
ID50 [6]: 7.6 µM

Second part, the compound after the results:

Activity [2]: 35%
SMILES: NCC[C@H](O)C(=O)N[C@@H]1C[C@H](N)[C@@H](O[C@H]2O[C@H](CN)[C@@H](O)[C@H](O)[C@H]2O)[C@H](O)[C@H]1O[C@H]1O[C@H](CO)[C@@H](O)[C@H](N)[C@H]1O

inhibition [4]: 50%
SMILES: COc1ccc2cc3[n+](cc2c1OC)CCc1cc2c(cc1-3)OCO2

Activity [5]: 35%
SMILES: COc1cc(/C=C/C(=O)CC(=O)/C=C/c2ccc(O)c(OC)c2)ccc1O

ID50 [6]: 2.1 µM
SMILES: COc1ccc(/N=C/c2ccc(OC(C)=O)c(OC)c2[N+](=O)[O-])cc1
